Here are results for 27 compounds from US8471005B2 (Cephalon, Inc., priority 2008, dated 2013).

For one assay, the target named is T1, ALK (Homo sapiens, UniProt Q9UM73).
T1 construct: host or cells: baculovirus expression system
Briefly: ALK Kinase Assay (ELISA/TRF, PLC-γ substrate). In kind it is biochemical. The following applies: ALK kinase inhibition, 1 μM ATP; read-out: ALK Potency. In a few lines:
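Read-out is time-resolved fluorescence from a Eu-N1-labeled PT66 antibody that binds phosphorylated PLC-γ, the substrate coated at 10 μg/mL in TBS. ALK at 30 ng/ml starts the reaction, which runs 15 minutes at 37° C.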
A general note: In an ELISA, binding on a coated surface is turned into a signal by an enzyme label.

For another assay, the target named is T2, JAK2 (Homo sapiens, UniProt O60674).
T2 construct: host or cells: baculovirus expression system
Briefly: Recombinant Human JAK2 Kinase Assay (TRF). In kind it is biochemical. To be noted: JAK2 kinase inhibition, 0.2 μM ATP; read-out: JAK2 Potency. In a few lines:
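Europium-labelled PY100 antibody reported tyrosine phosphorylation of a Neutravidin-captured biotinyl 15-mer peptide by JAK2 (baculovirus-expressed, 15 ng/ml). Conditions: 20 mM HEPES pH 7.2, 0.2 μM ATP, 1 mM MnCl2, 0.1% BSA, DMSO 2.5% final, 20 min at room temperature.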

T2 sequence (O60674 whole entry): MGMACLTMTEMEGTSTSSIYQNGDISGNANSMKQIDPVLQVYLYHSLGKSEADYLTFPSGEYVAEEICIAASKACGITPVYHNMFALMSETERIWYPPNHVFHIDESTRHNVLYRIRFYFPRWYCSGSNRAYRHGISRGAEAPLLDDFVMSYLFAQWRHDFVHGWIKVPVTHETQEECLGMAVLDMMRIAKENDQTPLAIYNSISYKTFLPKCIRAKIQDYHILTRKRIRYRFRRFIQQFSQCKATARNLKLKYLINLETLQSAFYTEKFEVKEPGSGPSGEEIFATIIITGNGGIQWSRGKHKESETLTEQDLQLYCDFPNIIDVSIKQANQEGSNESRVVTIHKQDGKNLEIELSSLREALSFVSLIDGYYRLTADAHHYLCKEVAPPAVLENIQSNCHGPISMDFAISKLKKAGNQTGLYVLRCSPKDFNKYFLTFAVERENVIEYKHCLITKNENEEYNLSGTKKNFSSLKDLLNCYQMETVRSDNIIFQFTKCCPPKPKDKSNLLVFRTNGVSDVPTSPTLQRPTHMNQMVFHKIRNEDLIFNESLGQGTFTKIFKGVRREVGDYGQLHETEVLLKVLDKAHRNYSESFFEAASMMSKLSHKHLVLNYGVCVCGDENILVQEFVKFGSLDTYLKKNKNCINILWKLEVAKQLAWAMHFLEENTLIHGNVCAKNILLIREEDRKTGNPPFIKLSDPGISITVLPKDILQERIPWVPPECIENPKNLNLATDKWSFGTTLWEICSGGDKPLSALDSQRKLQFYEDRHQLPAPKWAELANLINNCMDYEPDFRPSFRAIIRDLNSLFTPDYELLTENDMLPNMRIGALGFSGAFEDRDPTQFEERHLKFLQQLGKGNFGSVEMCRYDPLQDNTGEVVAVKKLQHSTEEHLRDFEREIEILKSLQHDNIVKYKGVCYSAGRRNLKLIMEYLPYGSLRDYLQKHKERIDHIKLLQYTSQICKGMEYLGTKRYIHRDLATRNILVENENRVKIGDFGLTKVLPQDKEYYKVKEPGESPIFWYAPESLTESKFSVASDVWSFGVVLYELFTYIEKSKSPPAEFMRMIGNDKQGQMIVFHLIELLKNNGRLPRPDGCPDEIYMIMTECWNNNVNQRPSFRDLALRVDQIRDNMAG
T1 sequence (Q9UM73 19-1620): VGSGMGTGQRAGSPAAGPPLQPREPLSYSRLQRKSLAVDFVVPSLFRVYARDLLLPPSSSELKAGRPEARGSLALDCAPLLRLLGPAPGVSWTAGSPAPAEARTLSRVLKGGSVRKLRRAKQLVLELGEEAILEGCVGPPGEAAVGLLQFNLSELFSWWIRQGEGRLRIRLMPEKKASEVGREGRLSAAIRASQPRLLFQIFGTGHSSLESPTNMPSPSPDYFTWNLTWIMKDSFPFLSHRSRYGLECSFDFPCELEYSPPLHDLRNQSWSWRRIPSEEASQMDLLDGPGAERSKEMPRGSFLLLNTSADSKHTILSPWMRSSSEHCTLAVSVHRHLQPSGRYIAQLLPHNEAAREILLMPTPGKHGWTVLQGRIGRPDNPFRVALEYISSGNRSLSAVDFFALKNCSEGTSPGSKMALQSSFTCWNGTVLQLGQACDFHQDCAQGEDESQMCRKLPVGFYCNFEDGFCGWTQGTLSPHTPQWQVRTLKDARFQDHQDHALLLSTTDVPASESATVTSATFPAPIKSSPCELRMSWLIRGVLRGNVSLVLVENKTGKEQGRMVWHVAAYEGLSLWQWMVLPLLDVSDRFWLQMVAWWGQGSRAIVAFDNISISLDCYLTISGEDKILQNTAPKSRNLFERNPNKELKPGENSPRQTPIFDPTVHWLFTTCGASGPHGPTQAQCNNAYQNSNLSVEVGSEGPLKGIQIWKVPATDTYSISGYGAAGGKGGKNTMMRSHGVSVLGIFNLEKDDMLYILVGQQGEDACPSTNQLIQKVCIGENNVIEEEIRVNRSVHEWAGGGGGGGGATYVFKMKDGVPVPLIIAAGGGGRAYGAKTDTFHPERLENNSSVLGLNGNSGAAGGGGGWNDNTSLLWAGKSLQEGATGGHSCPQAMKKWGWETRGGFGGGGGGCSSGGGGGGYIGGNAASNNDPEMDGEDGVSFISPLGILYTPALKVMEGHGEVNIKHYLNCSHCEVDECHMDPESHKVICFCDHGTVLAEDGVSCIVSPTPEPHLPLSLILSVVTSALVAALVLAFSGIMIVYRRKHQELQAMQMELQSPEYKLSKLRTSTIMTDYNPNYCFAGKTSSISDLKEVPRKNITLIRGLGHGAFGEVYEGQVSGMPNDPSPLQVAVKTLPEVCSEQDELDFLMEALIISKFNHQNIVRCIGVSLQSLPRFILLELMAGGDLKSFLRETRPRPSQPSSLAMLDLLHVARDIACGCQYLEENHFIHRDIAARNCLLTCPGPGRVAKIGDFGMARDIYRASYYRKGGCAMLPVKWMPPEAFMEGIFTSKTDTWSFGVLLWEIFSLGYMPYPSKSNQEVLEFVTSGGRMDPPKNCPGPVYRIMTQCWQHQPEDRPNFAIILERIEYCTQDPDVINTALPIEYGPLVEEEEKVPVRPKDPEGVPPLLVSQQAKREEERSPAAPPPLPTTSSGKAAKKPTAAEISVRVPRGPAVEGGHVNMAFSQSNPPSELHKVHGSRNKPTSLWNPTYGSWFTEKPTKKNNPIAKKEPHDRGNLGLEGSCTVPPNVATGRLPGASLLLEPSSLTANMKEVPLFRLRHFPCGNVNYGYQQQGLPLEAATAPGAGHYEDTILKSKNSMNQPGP

With `CN1CCOc2ccc(Nc3ncc4ccc(-c5cccc(S(=O)(=O)NC(C)(C)C)c5)n4n3)cc21` [Example 650, N-tert-Butyl-3-[2-(4-methyl-3,4-dihydro-2H-benzo[1,4]oxazin-6-ylamino)-pyrrolo[2,1-f][1,2,4]triazin-7-yl]-benzenesulfonamide], the IC50 on ALK is 100 to 1000 nM; on JAK2, below 100 nM.

`CCN1CCOC(c2ccc(Nc3ncc4ccc(-c5cccc(NS(C)(=O)=O)c5)n4n3)cc2)C1` (stereo not drawn) [Example 651, N-(3-{2-[4-(4-Ethyl-morpholin-2-yl)-phenylamino]-pyrrolo[2,1-f][1,2,4]triazin-7-yl}phenyl)methanesulfonamide]: the results for the IC50 on ALK and at JAK2 were 100 to 1000 nM and below 100 nM, respectively.

As for `CC(C)(C)NS(=O)(=O)c1cccc(-c2ccc3cnc(Nc4ccc5c(c4)NC(=O)C5)nn23)c1` [Example 652, N-tert-Butyl-3-[2-(2-oxo-2,3-dihydro-1H-indol-6-ylamino)-pyrrolo[2,1-f][1,2,4]triazin-7-yl]-benzenesulfonamide], the IC50 is 1000 to 10000 nM at ALK and below 100 nM at JAK2.

As for `CCN1CCOC(c2ccc(Nc3ncc4ccc(-c5cccc(S(=O)(=O)NC(C)(C)C)c5)n4n3)cc2)C1` (stereo not drawn) [Example 653, N-tert-Butyl-3-{2-[4-(4-ethyl-morpholin-2-yl)-phenylamino]-pyrrolo[2,1-f][1,2,4]triazin-7-yl}benzenesulfonamide], the IC50 at ALK was 100 to 1000 nM; at JAK2, below 100 nM.

Take `CC(C)(C)NS(=O)(=O)c1cccc(-c2ccc3cnc(Nc4ccc5c(c4)NC(=O)C5(C)C)nn23)c1` [Example 655, N-tert-Butyl-3-[2-(3,3-dimethyl-2-oxo-2,3-dihydro-1H-indol-6-ylamino)-pyrrolo[2,1-f][1,2,4]triazin-7-yl]-benzenesulfonamide]: the IC50 at ALK was 100 to 1000 nM; at JAK2, below 100 nM.

With `COc1ccccc1-c1ccc2cnc(Nc3ccc4c(c3)NC(=O)C4(C)C)nn12` [Example 656, 6-[7-(2-Methoxy-phenyl)-pyrrolo[2,1-f][1,2,4]triazin-2-ylamino]-3,3-dimethyl-1,3-dihydro-indol-2-one], the figures for the IC50 at ALK and on JAK2 were 100 to 1000 nM and below 100 nM, respectively.

On to `COc1ccc(-c2ccc3cnc(Nc4ccc5c(c4)NC(=O)C5(C)C)nn23)cn1` [Example 658, 6-[7-(6-Methoxy-pyridin-3-yl)-pyrrolo[2,1-f][1,2,4]triazin-2-ylamino]-3,3-dimethyl-1,3-dihydro-indol-2-one], for which the IC50 is above 10000 nM on ALK and below 100 nM on JAK2.

In the case of `COc1ccccc1-c1ccc2cnc(Nc3ccc4c(c3)CS(=O)(=O)C4)nn12` [Example 659, (2,2-Dioxo-2,3-dihydro-1H-2$1(6)-benzo[c]thiophen-5-yl)-[7-(2-methoxy-phenyl)-pyrrolo[2,1-f][1,2,4]triazin-2-yl]-amine], the IC50 at ALK and at JAK2 was below 100 nM each time.

With `COc1ccccc1-c1ccc2cnc(Nc3ccc(C4CCN(CC(N)=O)CC4)cc3)nn12` [Example 660, 2-(4-{4-[7-(2-Methoxy-phenyl)-pyrrolo[2,1-f][1,2,4]triazin-2-ylamino]-phenyl}-piperidin-1-yl)-acetamide], the IC50 on ALK and at JAK2 was below 100 nM throughout.

Take `CN1CCC(c2ccc(Nc3ncc4ccc(-c5cccc(N(C)C)c5)n4n3)cc2)CC1` [Example 662, [7-(3-Dimethylamino-phenyl)-pyrrolo[2,1-f][1,2,4]triazin-2-yl]-[4-(1-methyl-piperidin-4-yl)-phenyl]-amine]: the IC50 on ALK and at JAK2 was below 100 nM in each case.

For `CC(C)(C)NS(=O)(=O)c1cccc(-c2ccc3cnc(Nc4ccc5c(c4)CS(=O)(=O)C5)nn23)c1` [Example 663, N-tert-Butyl-3-[2-(2,2-dioxo-2,3-dihydro-1H-2$1(6)-benzo[c]thiophen-5-ylamino)-pyrrolo[2,1-f][1,2,4]triazin-7-yl]-benzenesulfonamide], the IC50 on ALK is 100 to 1000 nM; at JAK2, below 100 nM.

For the compound `NC(=O)CN1CCC(c2ccc(Nc3ncc4ccc(C5=CCNCC5)n4n3)cc2)CC1` [Example 664, 2-(4-{4-[7-(1,2,3,6-Tetrahydro-pyridin-4-yl)-pyrrolo[2,1-f][1,2,4]triazin-2-ylamino]-phenyl}-piperidin-1-yl)-acetamide], the figures for the IC50 at ALK and on JAK2 were 100 to 1000 nM and below 100 nM, respectively.

As for `CC(C)(C)NS(=O)(=O)c1cccc(-c2ccc3cnc(Nc4cncc(C(N)=O)c4)nn23)c1` [Example 665, 5-[7-(3-tert-Butylsulfamoyl-phenyl)-pyrrolo[2,1-f][1,2,4]triazin-2-ylamino]-nicotinamide], the figures for the IC50 at ALK and at JAK2 were above 10000 nM and below 100 nM, respectively.

Take `CN(c1ccccc1-c1ccc2cnc(Nc3cncc(C(N)=O)c3)nn12)S(C)(=O)=O` [Example 666, 5-{7-[2-(Methanesulfonyl-methyl-amino)-phenyl]-pyrrolo[2,1-f][1,2,4]triazin-2-ylamino}-nicotinamide]: the IC50 was 1000 to 10000 nM on ALK and below 100 nM at JAK2.

As for `COc1ccc(-c2ccc3cnc(Nc4cncc(C(N)=O)c4)nn23)cn1` [Example 667, 5-[7-(6-Methoxy-pyridin-3-yl)-pyrrolo[2,1-f][1,2,4]triazin-2-ylamino]-nicotinamide], the IC50 on ALK is 100 to 1000 nM; at JAK2, below 100 nM.

For the compound `COc1ccccc1-c1ccc2cnc(Nc3ccc(C4CCN(CCO)CC4)cc3)nn12` [Example 668, 2-(4-{4-[7-(2-Methoxy-phenyl)-pyrrolo[2,1-f][1,2,4]triazin-2-ylamino]-phenyl}-piperidin-1-yl)-ethanol], the IC50 at ALK and on JAK2 was below 100 nM each time.

Turning to `CN(c1ccccc1-c1ccc2cnc(Nc3ccc(C4CCN(CCO)CC4)cc3)nn12)S(C)(=O)=O` [Example 669, N-[2-(2-{4-[1-(2-Hydroxy-ethyl)-piperidin-4-yl]-phenylamino}-pyrrolo[2,1-f][1,2,4]triazin-7-yl)-phenyl]-N-methyl-methanesulfonamide], the IC50 on ALK and at JAK2 was below 100 nM each time.

With `CC(C)(C)NS(=O)(=O)c1cccc(-c2ccc3cnc(Nc4ccc(C5CCN(CCO)CC5)cc4)nn23)c1` [Example 670, N-tert-Butyl-3-(2-{4-[1-(2-hydroxy-ethyl)-piperidin-4-yl]-phenylamino}-pyrrolo[2,1-f][1,2,4]triazin-7-yl)-benzenesulfonamide], the values for the IC50 on ALK and at JAK2 were 100 to 1000 nM and below 100 nM, respectively.

As for `COc1ccc(-c2ccc3cnc(Nc4ccc(C5CCN(CCO)CC5)cc4)nn23)cn1` [Example 671, 2-(4-{4-[7-(6-Methoxy-pyridin-3-yl)-pyrrolo[2,1-f][1,2,4]triazin-2-ylamino]-phenyl}-piperidin-1-yl)-ethanol], the IC50 at ALK is 100 to 1000 nM; on JAK2 it was below 100 nM.

On to `COc1ccccc1-c1ccc2cnc(Nc3ccc4c(c3)C(NC(=O)OC(C)(C)C)C(O)C4)nn12` (stereo not drawn) [Example 673, {2-Hydroxy-6-[7-(2-methoxy-phenyl)-pyrrolo[2,1-f][1,2,4]triazin-2-ylamino]-indan-1-yl}-carbamic acid tert-butyl ester], for which the IC50 at ALK is 100 to 1000 nM; on JAK2 it was below 100 nM.

In the case of `CC(C)(C)OC(=O)N1CCC=C(c2ccc3cnc(Nc4ccc(C5CCN(CC(N)=O)CC5)cc4)nn23)C1` [Example 675, 5-{2-[4-(1-Carbamoylmethyl-piperidin-4-yl)-phenylamino]-pyrrolo[2,1-f][1,2,4]triazin-7-yl}-3,6-dihydro-2H-pyridine-1-carboxylic acid tert-butyl ester], the IC50 is 1000 to 10000 nM at ALK and below 100 nM on JAK2.

For `COc1cc(-c2ccc3cnc(Nc4ccc(C5CCN(C)CC5)cc4)nn23)ccn1` [Example 676, [7-(2-Methoxy-pyridin-4-yl)-pyrrolo[2,1-f][1,2,4]triazin-2-yl]-[4-(1-methyl-piperidin-4-yl)-phenyl]-amine], the IC50 at ALK was 100 to 1000 nM; on JAK2 it was below 100 nM.

For `O=S(=O)(c1cccc(-c2ccc3cnc(Nc4ccc(C5CCN(CCO)CC5)cc4)nn23)c1)N1CCOCC1` [Example 677, 2-[4-(4-{7-[3-(Morpholine-4-sulfonyl)-phenyl]-pyrrolo[2,1-f][1,2,4]triazin-2-ylamino}-phenyl)-piperidin-1-yl]-ethanol], the results for the IC50 on ALK and at JAK2 were 100 to 1000 nM and below 100 nM, respectively.

As to `O=S(=O)(c1cccc(-c2ccc3cnc(Nc4ccc(C5CCN(CCO)CC5)cc4)nn23)c1)N1CCCC1` [Example 678, 2-[4-(4-{7-[3-(Pyrrolidine-1-sulfonyl)-phenyl]-pyrrolo[2,1-f][1,2,4]triazin-2-ylamino}-phenyl)-piperidin-1-yl]ethanol], the IC50 is 100 to 1000 nM on ALK and below 100 nM on JAK2.

As for `CS(=O)(=O)c1ccc(-c2ccc3cnc(Nc4ccc(C5CCN(CCO)CC5)cc4)nn23)cc1` [Example 679, 2-(4-{4-[7-(4-Methanesulfonyl-phenyl)-pyrrolo[2,1-f][1,2,4]triazin-2-ylamino]-phenyl}-piperidin-1-yl)-ethanol], the IC50 at ALK and on JAK2 was below 100 nM each time.

For the compound `CC(C)(C)NS(=O)(=O)c1cccc(-c2ccc3cnc(Nc4ccc5c(c4)C(N)C(O)C5)nn23)c1` (stereo not drawn) [Example 680, 3-[2-(3-Amino-2-hydroxy-indan-5-ylamino)-pyrrolo[2,1-f][1,2,4]triazin-7-yl]-N-tert-butyl-benzenesulfonamide], the IC50 is 100 to 1000 nM on ALK and below 100 nM on JAK2.

Take `COc1ccccc1-c1ccc2cnc(Nc3ccc4c(c3)C(N)C(O)C4)nn12` (stereo not drawn) [Example 681, 1-Amino-6-[7-(2-methoxy-phenyl)-pyrrolo[2,1-f][1,2,4]triazin-2-ylamino]-indan-2-ol]: the figures for the IC50 at ALK and at JAK2 were 100 to 1000 nM and below 100 nM, respectively.
